Results as given in patent US5663205A, “Pharmaceutical composition for use in glaucoma treatment” (Senju Pharmaceutical Co. Ltd., priority 1992, dated 1997).
Structures can show the parent of a compound that is named as a salt. Where two headings read alike, the source gives them in different places.

Legend:
choroidal blood flow = conditions: cited from earlier work
[1] = Test Example 7 (1): acute toxicity test in mice; conditions: mouse, in vivo, read-out: 50% lethal dose (LD50)
Experimental: (1) Acute toxicity test of amosulalol hydrochloride with mice:
Investigation was conducted on the acute toxicity of amosulalol hydrochloride in mice through oral administration or intravenous administration.
Amosulalol was given to 7-weeks aged ICR mice by oral administration by use of an oral probe or through a tail vein.

[2] = system: Normal Intraocular Pressure; assay: Test Example 1 (1): intraocular pressure reducing activity on normal intraocular pressure, pigmented rabbits; assay type: in vivo, pigmented rabbits (Dutch belted rabbits); conditions: 0.5% ophthalmic solution, 30 min and 1 hour after topical application
Experimental: Intraocular Pressure Reducing Activity of Amosulalol Hydrochloride on Normal Intraocular Pressure in Pigmented Rabbits Male pigmented rabbits (Dutch belted rabbits) weighing about 2 kg, after having been confirmed to be free from ocular abnormalities; were bred in a breeding room maintained at a temperature of 24± 4° C. and at a relative humidity of 55± 15%, while they were given solid food (Labo RG-RO manufactured by Nihon Nohsan Kogyo K.K.) at a daily rate of 100 g per rabbit and allowed free access to tap water as drinking water. As a test drug, amosulalol hydrochloride was processed into 0.05% (hereinafter, the term "%" is to be understood to designate "w/v %") and 1.0% aqueous solutions which were used in the test, and 0.5% timolol maleate ophthalmic solution [Timoptol (registered trademark): Ban-yu Pharmaceutical Co.] and physiological saline were used as a positive control drug and a control substance, respectively. (1) Measurement of intraocular pressure: Thirty two (32) rabbits were divided into four groups each consisting of 8 rabbits, and 50 μl of test drugs as well as the control drug and physiological saline were applied topically to one eye each of the individual rabbits, with the other being left untreated. Before instillation and 0.5, 1, 2, 3, 4, 6 and 8 hours after topical application,intraocular pressure for both of eyes of each rabbit was measured using a Pneumatonograph (manufactured by Alcon Co. Hereinafter referred to briefly as "PTG"). Shown in FIG. 1 are time-course changes of intraocular pressure taken with the eyes treated by instillation of each of the test drugs, control drug and physiological saline, with time (hour) after instillation taken as abscissa and intraocular pressure (mmHg as ordinate; each value in mean±S.E. (number of cases is 8). The signs "a", "b", "d" and "e" designate physiological saline, 0.05% aqueous solution of amosulalol hydrochloride, 1.0% aqueous solution of amosulalol hydrochloride, and 0.5% ophthalmic solution of timolol maleate, respectively.

[3] = system: Normal Intraocular Pressure; assay: Test Example 2 (1): intraocular pressure reducing activity on normal intraocular pressure, pigmented rabbits; assay type: in vivo, pigmented rabbits (Dutch belted rabbits); conditions: 0.5% ophthalmic solution, treated eyes, 30 min and 1 hour after topical application
Experimental: Intraocular Pressure Reducing Activity of Amosulalol Hydrochloride on Normal Intraocular Pressure in Pigmented Rabbits Forty (40) male pigmented rabbits (Dutch belted rabbits) weighing about 2 kg, after having been confirmed to be free from ocular abnormalities, were bred in a breeding room maintained at a temperature of 24± 4° C. and at a relative humidity of 55± 15%, while they were fed solid food (Labo RG-RO, manufactured by Nihon Nohsan Kogyo K.K.) at a daily rate of 100 g per rabbit and allowed free access to tap water as drinking water. As a test drug, amosulalol hydrochloride was processed into 0.05%, 0.5% and 1.0% aqueous solutions which were used in the test, and 0.5% timolol maleate ophthalmic solution [Timoptol (registered trademark): Ban-yu Pharmaceutical Co.] and physiological saline were used as a positive control drug and a control substance, respectively. (1) Measurement of intraocular pressure: Forty (40) rabbits were divided into five groups. each consisting of 8 heads, and 50 μl of test drug as well as the control drug and physiological saline were applied topically to one eye each of the individual rabbits, with the other being left untreated. Before instillation and 0.5, 1, 2, 3, 4, 6 and 8 hours after topical application respectively, intraocular pressure for both eyes of each rabbit was measured using PTG. Time-course changes of intraocular pressure measurements taken with the eyes treated by instillation of each of the test drugs, control drug and physiological saline, are illustrated in FIGS. 2 (for treated eyes) and 3 (for non-treated eyes), respectively, with time (hour) after instillation taken as abscissa and intraocular pressure (mmHg) as ordinate; each value in mean ± S.E. (the number in each case is 8). The signs "a", "b", "c", "d" and "e" designate physiological saline, 0.05% aqueous solution of amosulalol hydrochloride, 0.5% aqueous solution of amosulalol hydrochloride, 1.0% aqueous solution of amosulalol hydrochloride and 0.5% solution of timolol maleate, respectively.

For `CCCC(=O)N1CCCN(c2nc(N)c3cc(OC)c(OC)cc3n2)CC1` [bunazosin hydrochloride], the choroidal blood flow (choroidal blood flow) is given as “can increase choroidal blood flow”.

`COc1ccccc1OCCNCC(O)c1ccc(C)c(S(N)(=O)=O)c1` (stereo not shown) [Amosulalol, 5-[1-hydroxy-2-[2-(2-methoxyphenoxy)ethylamino]ethyl]-2-methylbenzenesulfonamide] gave an LD50 ([1]; iv, intravenous (tail vein), female mice) of 134 mg/kg, an LD50 ([1]; iv, intravenous (tail vein), male mice) of 104 mg/kg and an LD50 ([1]; po, female mice) of 5700 mg/kg. For the same molecule, the LD50 ([1]; po, male mice) was 6500 mg/kg.

In the case of `CC(C)(C)NC[C@H](O)COc1nsnc1N1CCOCC1` [timolol maleate, reference compound], the “drop in intraocular pressure” value [2] is reported as 2.4 mmHg and the “drop in intraocular pressure” value [3] is reported as 2.4 mmHg.
